Test results published in ChEMBL document CHEMBL5465560, “Selectivity Literature for EUbOPEN Chemogenomic Library” (2024).
Values belong to the compound of their own block, whether it stands above or below them.

Tests used:
[1] = molecular target: Protein arginine N-methyltransferase 6 (Homo sapiens, UniProt Q96LA8); assay: Selectivity interaction (Methyltransferase screen (radiometric assays, panel of 8 PRMTs, 21 protein lysine methyltransferases, 3 DNA methyltransferases, and one RNA methyltransferase)) EUB0000272b PRMT6
[2] = molecular target: T1, Tyrosine-protein kinase ZAP-70 (Homo sapiens) (UniProt P43403); assay: Selectivity interaction (KinomeScan (DiscoverX)) EUB0000666a ZAP70; settings: at 10 µM
T1 sequence (whole entry): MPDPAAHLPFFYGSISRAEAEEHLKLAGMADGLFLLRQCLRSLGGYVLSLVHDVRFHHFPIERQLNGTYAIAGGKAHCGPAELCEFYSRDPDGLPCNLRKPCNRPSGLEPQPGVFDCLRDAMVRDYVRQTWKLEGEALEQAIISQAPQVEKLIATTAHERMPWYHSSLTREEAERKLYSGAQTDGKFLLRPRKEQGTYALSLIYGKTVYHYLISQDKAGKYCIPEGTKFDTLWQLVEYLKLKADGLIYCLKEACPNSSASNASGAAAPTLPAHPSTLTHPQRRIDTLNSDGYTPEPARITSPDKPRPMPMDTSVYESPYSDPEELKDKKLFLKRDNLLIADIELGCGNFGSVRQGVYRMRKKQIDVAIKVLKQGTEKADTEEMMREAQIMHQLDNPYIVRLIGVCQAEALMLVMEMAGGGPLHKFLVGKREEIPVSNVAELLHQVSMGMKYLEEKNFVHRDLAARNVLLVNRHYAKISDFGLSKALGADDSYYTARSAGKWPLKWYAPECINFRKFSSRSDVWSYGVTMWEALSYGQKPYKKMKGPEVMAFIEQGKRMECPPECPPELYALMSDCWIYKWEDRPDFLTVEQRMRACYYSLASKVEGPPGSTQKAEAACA

[3] = molecular target: Receptor-type tyrosine-protein kinase FLT3 (Homo sapiens) (UniProt P36888); assay: Selectivity interaction (Upstate Kinase Profiler service (Millipore)) EUB0000056c FLT3; settings: at 1 µM
[4] = molecular target: T2, NUAK family SNF1-like kinase 1 (Homo sapiens) (UniProt O60285); assay: Selectivity interaction (ProQinase) EUB0000171b NUAK1
T2 sequence (whole entry): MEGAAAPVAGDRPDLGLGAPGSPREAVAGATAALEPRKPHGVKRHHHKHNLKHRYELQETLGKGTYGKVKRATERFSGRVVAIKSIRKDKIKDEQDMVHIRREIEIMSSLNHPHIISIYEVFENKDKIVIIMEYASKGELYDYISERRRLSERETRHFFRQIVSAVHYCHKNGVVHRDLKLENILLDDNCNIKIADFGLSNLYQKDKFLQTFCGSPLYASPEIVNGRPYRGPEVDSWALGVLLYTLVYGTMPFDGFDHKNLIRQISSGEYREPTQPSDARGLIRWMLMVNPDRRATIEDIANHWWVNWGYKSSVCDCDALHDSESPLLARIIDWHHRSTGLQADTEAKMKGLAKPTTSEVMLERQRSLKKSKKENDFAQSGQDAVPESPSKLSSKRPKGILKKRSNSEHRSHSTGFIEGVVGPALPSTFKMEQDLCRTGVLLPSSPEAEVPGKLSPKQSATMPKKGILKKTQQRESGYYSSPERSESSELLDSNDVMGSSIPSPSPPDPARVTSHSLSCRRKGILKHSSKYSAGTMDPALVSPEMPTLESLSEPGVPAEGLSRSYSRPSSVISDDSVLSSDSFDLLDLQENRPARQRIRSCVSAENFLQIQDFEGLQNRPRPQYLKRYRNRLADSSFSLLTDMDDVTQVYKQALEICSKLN

[5] = molecular target: Phosphatidylinositol 4-kinase beta (Homo sapiens, UniProt Q9UBF8); assay: Selectivity interaction (KinomeScan (DiscoverX)) EUB0000655a PI4KB; settings: at 10 µM
[6] = molecular target: T3, RNA 5'-monophosphate methyltransferase (Homo sapiens) (UniProt Q7Z5W3); assay: Selectivity interaction (Transferase panel (protein, RNA, and DNA methyltransferases. and EP300 (acetyltransferase))) EUB0000270b BCDIN3D
T3 sequence (whole entry): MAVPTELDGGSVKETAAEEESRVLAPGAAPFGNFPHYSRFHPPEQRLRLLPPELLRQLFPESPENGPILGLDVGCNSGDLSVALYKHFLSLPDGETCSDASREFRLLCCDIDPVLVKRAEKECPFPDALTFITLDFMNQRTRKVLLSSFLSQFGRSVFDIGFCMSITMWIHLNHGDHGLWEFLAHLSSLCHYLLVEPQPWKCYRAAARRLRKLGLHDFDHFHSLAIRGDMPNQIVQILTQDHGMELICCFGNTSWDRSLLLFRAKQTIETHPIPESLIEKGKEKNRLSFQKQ

[7] = molecular target: T4, Casein kinase I isoform alpha-like (Homo sapiens) (UniProt Q8N752); settings: at 10 µM
T4 sequence (whole entry): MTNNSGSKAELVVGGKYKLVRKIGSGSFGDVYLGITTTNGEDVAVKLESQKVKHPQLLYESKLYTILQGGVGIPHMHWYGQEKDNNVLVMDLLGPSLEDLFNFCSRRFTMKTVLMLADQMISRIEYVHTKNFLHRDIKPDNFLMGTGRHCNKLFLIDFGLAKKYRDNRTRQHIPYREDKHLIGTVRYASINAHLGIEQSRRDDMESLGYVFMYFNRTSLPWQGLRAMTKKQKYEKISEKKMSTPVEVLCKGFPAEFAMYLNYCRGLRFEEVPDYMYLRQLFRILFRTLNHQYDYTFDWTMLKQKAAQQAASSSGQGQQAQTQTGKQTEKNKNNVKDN

[8] = molecular target: T5, Serine/threonine-protein kinase RIO1 (Homo sapiens) (UniProt Q9BRS2); assay: Selectivity interaction (KinomeScan (DiscoverX)) EUB0000618a RIOK1; settings: at 10 µM
T5 sequence (whole entry): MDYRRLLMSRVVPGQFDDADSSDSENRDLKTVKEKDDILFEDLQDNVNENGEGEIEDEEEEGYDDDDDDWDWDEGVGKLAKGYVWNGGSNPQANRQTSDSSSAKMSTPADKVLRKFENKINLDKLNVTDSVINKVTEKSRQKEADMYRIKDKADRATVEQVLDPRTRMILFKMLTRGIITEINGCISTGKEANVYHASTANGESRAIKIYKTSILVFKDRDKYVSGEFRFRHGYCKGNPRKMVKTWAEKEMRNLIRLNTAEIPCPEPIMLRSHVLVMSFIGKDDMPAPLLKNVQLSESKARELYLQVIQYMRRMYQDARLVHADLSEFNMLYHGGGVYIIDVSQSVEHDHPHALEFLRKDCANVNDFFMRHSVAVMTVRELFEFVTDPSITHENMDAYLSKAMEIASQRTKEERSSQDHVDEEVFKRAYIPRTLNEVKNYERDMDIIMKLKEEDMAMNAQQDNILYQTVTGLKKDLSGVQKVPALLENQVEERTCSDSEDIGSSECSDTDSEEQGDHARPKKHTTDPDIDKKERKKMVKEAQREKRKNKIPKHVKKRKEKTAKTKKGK

Sequence of Protein arginine N-methyltransferase 6 (Q96LA8 whole entry, looked up): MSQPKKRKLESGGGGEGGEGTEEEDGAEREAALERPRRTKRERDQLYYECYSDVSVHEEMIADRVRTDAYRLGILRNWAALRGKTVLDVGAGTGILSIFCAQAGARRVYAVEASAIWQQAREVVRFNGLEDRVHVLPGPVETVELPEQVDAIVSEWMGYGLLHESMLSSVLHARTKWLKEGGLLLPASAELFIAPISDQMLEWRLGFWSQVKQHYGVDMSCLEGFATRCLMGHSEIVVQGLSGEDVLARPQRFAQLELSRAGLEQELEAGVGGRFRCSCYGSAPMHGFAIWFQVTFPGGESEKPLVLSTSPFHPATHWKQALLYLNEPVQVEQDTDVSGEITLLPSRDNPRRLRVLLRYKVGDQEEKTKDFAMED
Sequence of Phosphatidylinositol 4-kinase beta (Q9UBF8 2-816 limits assumed): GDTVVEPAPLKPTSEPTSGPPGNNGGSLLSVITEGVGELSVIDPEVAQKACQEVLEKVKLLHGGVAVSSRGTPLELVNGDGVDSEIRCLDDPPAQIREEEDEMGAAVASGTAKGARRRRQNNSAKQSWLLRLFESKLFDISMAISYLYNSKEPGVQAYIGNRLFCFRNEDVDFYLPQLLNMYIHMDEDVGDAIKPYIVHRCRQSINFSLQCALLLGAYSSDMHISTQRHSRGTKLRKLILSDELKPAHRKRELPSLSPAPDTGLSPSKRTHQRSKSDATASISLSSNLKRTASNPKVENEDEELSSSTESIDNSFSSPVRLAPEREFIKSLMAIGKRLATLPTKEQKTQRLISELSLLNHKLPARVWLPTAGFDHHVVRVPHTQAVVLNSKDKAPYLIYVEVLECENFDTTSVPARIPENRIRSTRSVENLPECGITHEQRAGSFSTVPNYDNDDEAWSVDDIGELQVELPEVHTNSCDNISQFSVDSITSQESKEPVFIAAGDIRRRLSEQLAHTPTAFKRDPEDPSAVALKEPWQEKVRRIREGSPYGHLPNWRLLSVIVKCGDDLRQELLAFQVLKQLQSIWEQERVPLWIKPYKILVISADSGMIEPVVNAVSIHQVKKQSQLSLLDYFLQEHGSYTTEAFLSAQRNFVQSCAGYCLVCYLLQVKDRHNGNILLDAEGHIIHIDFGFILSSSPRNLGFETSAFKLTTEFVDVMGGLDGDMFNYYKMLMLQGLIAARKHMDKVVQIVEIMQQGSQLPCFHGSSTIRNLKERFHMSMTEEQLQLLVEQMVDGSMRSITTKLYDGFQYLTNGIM
Sequence of Receptor-type tyrosine-protein kinase FLT3 (Homo sapiens) (P36888 whole entry): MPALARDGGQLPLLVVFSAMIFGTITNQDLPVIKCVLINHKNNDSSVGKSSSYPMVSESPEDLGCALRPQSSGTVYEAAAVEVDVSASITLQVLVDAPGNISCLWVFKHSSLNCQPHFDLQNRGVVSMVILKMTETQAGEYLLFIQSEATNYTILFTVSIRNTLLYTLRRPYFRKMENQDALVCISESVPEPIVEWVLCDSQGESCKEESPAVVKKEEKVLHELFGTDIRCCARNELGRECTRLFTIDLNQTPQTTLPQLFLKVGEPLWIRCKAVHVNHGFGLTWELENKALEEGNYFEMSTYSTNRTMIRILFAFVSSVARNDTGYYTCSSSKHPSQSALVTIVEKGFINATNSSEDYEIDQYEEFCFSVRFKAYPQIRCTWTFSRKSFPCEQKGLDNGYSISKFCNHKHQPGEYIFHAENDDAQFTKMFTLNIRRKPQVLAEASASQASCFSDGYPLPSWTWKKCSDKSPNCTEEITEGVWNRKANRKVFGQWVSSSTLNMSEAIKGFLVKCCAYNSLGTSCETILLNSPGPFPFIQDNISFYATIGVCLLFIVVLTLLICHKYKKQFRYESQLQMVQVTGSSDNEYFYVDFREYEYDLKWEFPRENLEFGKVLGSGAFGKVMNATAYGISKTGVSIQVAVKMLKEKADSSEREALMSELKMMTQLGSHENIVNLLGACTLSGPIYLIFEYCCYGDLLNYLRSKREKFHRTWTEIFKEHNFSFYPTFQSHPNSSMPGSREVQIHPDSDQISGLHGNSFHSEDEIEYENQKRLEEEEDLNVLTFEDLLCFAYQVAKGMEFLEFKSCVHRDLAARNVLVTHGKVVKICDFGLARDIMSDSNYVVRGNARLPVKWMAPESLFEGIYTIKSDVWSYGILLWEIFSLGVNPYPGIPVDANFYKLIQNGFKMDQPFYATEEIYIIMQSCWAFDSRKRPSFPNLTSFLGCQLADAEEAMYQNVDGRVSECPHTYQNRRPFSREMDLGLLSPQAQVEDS

Structure (SMILES): O=C(NOC[C@H](O)CO)c1ccc(F)c(F)c1Nc1ccc(I)cc1F
% of control [2]: 89%

Structure (SMILES): CN(C)CCOc1ccc(-c2nc(-c3ccncc3)c(-c3ccc4c(c3)CC/C4=N\O)[nH]2)cc1
% of control [5]: 88%

Structure (SMILES): Cc1cc([C@@H](C)Nc2ccccc2C(=O)O)c2nc(N3CCOCC3)cc(=O)n2c1 [AZD-6482]
% of control [7]: 100%

Structure (SMILES): O[C@H]1CC[C@H](Nc2ncc3nc(Nc4c(F)cc(F)cc4F)n([C@H]4CCOC4)c3n2)CC1
% of control [8]: 100%

Continued, values first:

% of activity ([1]; at 1 µM): 92.3%
% of activity ([1]; at 10 µM): 92.7%
Structure (SMILES): Cc1cc(C)cc([C@H]2c3cc(C)ccc3NC(=O)CN2C(=O)c2ccc(Br)s2)c1

% of inhibition [3]: -11%
Structure (SMILES): Cc1ccc(-c2ccc3c(ccc4sc5c(c43)NC[C@@H](C)NC5=O)n2)cn1

% of control ([4]; at 1 µM): 97%
% of control ([4]; at 5 µM): 88%
Structure (SMILES): C=CC(=O)Nc1cccc(C(=O)Nc2ccc(Nc3cc(-c4[nH]c(SC)nc4C)ccn3)cc2)c1

% activity ([6]; at 1 µM): > 90%
% activity ([6]; at 10 µM): > 80%
Structure (SMILES): Cc1cc(CN)cc(C)c1-c1ncn(C)c1-c1cncn1C
